“Also recorded” adds a separate entry of the source. Like-named read-outs stand apart in the source and are kept apart here.
Experiments:
[1] = test system: Group 3-like D556 MB cells; test: Proliferation of Group 3-like MB cells
[2] = test system: MB tumor stem-like cells (nestin-positive) in SmoA1 OSCs; test: SmoA1 OSC, CC3 and nestin co-staining (death of tumor stem-like cells); format: cell-based, mouse
Protocol: DAPI=nuclear stain, DMSO=vehicle. Treatment of human MB cells and SmoA1 OSCs with WP1066 in combination with fisetin further enhances the inhibition of cell proliferation in vitro induction of tumor cell death diffusely ex vivo, but synergistically kills the tumor stem-like cell population specifically.
Given that STA 3 and YB-1 expression colocalized to the cancer stem cell-like cells of the perivascular niche environment, experiments were performed to determine whether combined treatment with these inhibitors, fisetin and WPHH66, leads: to increased tumor cell and/or tumor stem cell like cell death. The effect of combination treatment was evaluated in the in vitro proliferation and colony formation assays. […] Next, experiments were performed to determine whether this effect was more pronounced in the stem cell compartment, where YB-1 and STAT3 are most highly expressed. SmoA1 MB ex vivo brain slices were treated with WP1066, fisetin, or combined treatment thereof. The slices were immunostained for the tumor stem-like cell marker nestin and the cell death marker CC3 to quantify the amount of cell death in the tumor stem-like cells.

[3] = test system: SmoA1 murine SHH-activated MB organotypic slice culture; test: Murine MB organotypic slice culture (OSC), cell death by cleaved caspase 3 staining; details: 24 h treatment; for concentration giving significant increase in cell death (CC3 standardized to DAPI): compared to control; for cell death (CC3 staining), result in words: relative to vehicle control
[4] = test system: patient-derived non-WNT/SHH MB OSC; test: Patient-derived MB OSC, cell death by CC3 staining; format: cell-based, human; details: relative to vehicle controls
Protocol: Ex vivo, cultures can be used to evaluate drug effects on murine MB tumor cells in their microenvironment. Experiments were performed to determine whether OSC could be used as a “precision medicine” technique in medulloblastoma, e.g., whether biopsy sample from either a newly diagnosed or relapsed medulloblastoma patient could be directly obtained in the operating room, transferred to the lab, and OSCs generated and tested per the protocol, with readout of the efficacy of potential treatments within 3 days. After obtaining fresh tumor tissue from a newly diagnosed patient with a cerebellar tumor, an OSC assay using this patient-derived medulloblastoma specimen was performed. Four tumor slices were treated with vehicle (DMSO or PBS) and 6 tumor slices were treated with WP1066, fisetin, and cisplatin as positive control. […] Therefore this assay can be used at the time of diagnosis, indicating the feasibility of OSC for use in a personalized medicine based testing approach (FIG. 5C) in pediatric brain tumors. Later the neuropathology report confirmed isochromosome 17q in the specimen without MYC or MYCN amplification consistent with a non-WNT/SHH MB.

[5] = Homo sapiens, read-out: IC50, inhibition of proliferation, D556

O=c1c(O)c(-c2ccc(O)c(O)c2)oc2cc(O)ccc12 [fisetin, 2-(3,4-dihydroxyphenyl)-3,7-dihydroxy-4H-chromen-4-one]
IC50 [1, 5]: 3.6 µM
percentage of CC3/nestin-positive cells (dead nestin-positive cells) [2]: 1.6%
concentration giving significant increase in cell death (CC3 standardized to DAPI) [3]: > 4 µM
cell death (CC3 staining), result in words [3]: induces marked tumor cell death; also recorded: dose-dependent increase in cell death
cell death (CC3 staining), result in words [4]: Increase in cell death
cell death (CC3 staining), result in words ([4]; listed as Fisetin): induced cell death

CC(NC(=O)C(C#N)=Cc1cccc(Br)n1)c1ccccc1 (stereo not shown) [WP1066, 3-(6-bromopyridin-2-yl)-2-cyano-N-(1-phenylethyl)acrylamide]
IC50 [1, 5]: 1.5 µM
IC50 ([1]; read-out: IC50, inhibition of proliferation, D556): 1.2 µM
percentage of CC3/nestin-positive cells (dead nestin-positive cells) [2]: 1.4%
concentration giving significant increase in cell death (CC3 standardized to DAPI) [3]: greater than 1.5 μM
cell death (CC3 staining), result in words [3]: significantly increased cell death; also recorded: induces marked tumor cell death; also recorded: dose-dependent increase in cell death
cell death (CC3 staining), result in words [4]: induced cell death; also recorded: Increase in cell death

Nc1nc(=S)c2[nH]cnc2[nH]1 [6-thioguinine]
cell death (CC3 staining), result in words [3]: minimal increase in cell death

CS(=O)(=O)OCCCCOS(C)(=O)=O [Busulfan]
cell death (CC3 staining), result in words [3]: minimal increase in cell death

N.N.[Cl][Pt][Cl] [cisplatin]
concentration giving significant increase in cell death (CC3 standardized to DAPI) [3]: 2 µM
cell death (CC3 staining), result in words [4]: Increase in cell death
